Assay results: US10759785B2, “Compounds” (ENTERPRISE THERAPEUTICS LIMITED, priority 2016, dated 2020)
Where a name gives a salt, the structure may show the parent alone.

Tests used:
Assay type in all cases: in vitro ADME
[1] = Hepatic stability (human cryopreserved hepatocytes); settings: 1×10^6 cells/mL, 37° C.; for Averages. Hep Half Life Human: 1 μM test compound; for half-life at 1 μM: cryopreserved hepatocytes, pH 7.4, 1 μM test compound, read-out: Averages. Hep Half Life Human
Procedure: Example 29—Hepatic Stability
Cryopreserved hepatocytes (rat and human) were obtained from Bioreclamation. Test compound stock solutions in DMSO (10 mM) were diluted with DMSO to 4 mM. Further dilution was completed to achieve a 100 μM stock (5 μL of 4 mM in 195 μL of 50:50 DMSO:hepatocyte buffer). Final test compound concentration in incubation was 1 μM. The following probe substrates were used: testosterone and carbamazepine at a final incubation concentration of 1 μM. Hepatocyte buffer was prepared (Williams E media containing phenol red and Glutamax™, 15 mM HEPES, warmed to 37° C., pH7.4 with NaOH). Cells were removed from liquid nitrogen, thawed in a waterbath, decanted into 50 mL of pre-warmed Cryopreserved Hepatocyte Recovery Media (LifeTechnologies) and centrifuged. Supernatant fraction was removed, cells were re-suspended in hepatocyte buffer and counted by trypan blue exclusion. Cell viability of >80% was required for all assays. Cells were re-suspended to 1×10^6/mL and 198 μL cell suspension added to each 96-well. 2 μL of 100 μM compound stock solution was added to relevant wells to initiate the incubation. A no cell control and two replicates of each test compound was included in every assay. Cells were incubated at 37° C., on a shaker set at 300 rpm. At each timepoint (0, 15, 30, 45, 60, 90 min) 20 μL of sample was removed from the 96-well and added to 80 μL of quench solution (acetonitrile containing 0.1% formic acid and imipramine/labetalol, 200 nM). Samples were diluted 1:1 with water using the Janus Robot and analysed by LC-MS/MS.

[2] = Microsomal stability (human microsomes); settings: 0.5 mg/mL protein, 1 mM NADPH, 37° C.; for Averages. Mic Half Life Human: 1 μM test compound; for half-life at 1 μM: pH 7.4, 1 μM test compound, read-out: Averages. Mic Half Life Human
Procedure: (§1) Example 28—Microsomal Stability
(§2) Microsomes (rat and human) were obtained from Bioreclamation. Test compound stock solutions in DMSO (10 mM) were diluted with DMSO to 2 mM. Further dilution was completed to achieve a 100 μM stock (final concentrations; 91.5% Acetonitrile: 8.5% DMSO). Final test compound concentration in incubation was 1 μM (<0.1% DMSO). The following probe substrates were used: verapamil, propranolol, metoprolol and phenacetin (rat) at a final incubation concentration of 1 μM. Assay buffer—Solution 1: 17.4 g potassium phosphate dibasic anhydrous (K2HPO4, 0.1 M) dissolved in 1 L deionised water. Solution 2: 13.6 g potassium phosphate monobasic anhydrous (KH2PO4, 0.1 M) dissolved in 1 L deionised water. Potassium phosphate solutions 1 and 2 were combined to form a pH 7.42 solution at 37° C. pH 7.4 with 2 mM magnesium chloride. NADPH (10 mM)—diluted in deionised water. Frozen microsomes were thawed at 37° C. Microsomes were diluted in assay buffer to achieve a final protein concentration of 0.5 mg/mL and 1 mM NADPH. The following procedure was completed on a Perkin Elmer Janus robotic platform in 96 well format: The microsomal incubation plate was transferred to a heater shaker at 300 rpm and solution heated to 37° C. for 10 min pre-warm. A no co-factor control at 0 and 45 min and one replicates of each test compound was included in every assay. Microsomes were incubated at 37° C., on a shaker set at 300 rpm throughout the assay. At each timepoint (0, 5, 15, 30, 45 min) 50 μL of sample was removed from the 96-well and added to 200 μL of quench solution (acetonitrile containing 0.1% formic acid and imipramine/labetalol, 200 nM). Samples were diluted 1:1 with water using the Janus Robot and analysed by LC-MS/MS.

[3] = Microsomal stability (rat microsomes); settings: pH 7.4, 1 μM test compound, 0.5 mg/mL protein, 1 mM NADPH, 37° C., read-out: Averages. Mic Half Life Rat
Procedure: as §1, §2

With `CCn1c(CNC(=O)c2nc(Br)cnc2N)[n+](C)c2ccc(C(F)(F)F)cc21.[I-]` [Example 13, 2-{[(3-amino-6-bromopyrazin-2-yl)formamido]methyl}-1-ethyl-3-methyl-6-(trifluoromethyl)-1H-1,3-benzodiazol-3-ium iodide] as the molecule, how does the “Averages. Hep Half Life Human” value [1] read?
The value was 4 h.

What about the “Averages. Mic Half Life Human” value [2] of the same molecule?
The value was 2.3 h.

And the half-life at 1 μM [3]?
The half-life at 1 μM was 0.0833 h.

Which “Averages. Hep Half Life Human” value [1] does the source give for `CCn1c(CNC(=O)c2nc(Br)cnc2N)[n+](CCOCCOCCO)c2ccc(OC)cc21.O=C[O-]` [Example 4, 2-{[(3-amino-6-bromopyrazin-2-yl)formamido]methyl}-1-ethyl-3-{2-[2-(2-hydroxyethoxy)ethoxy]ethyl}-6-methoxy-1H-1,3-benzodiazol-3-ium formate] here?
The value was 4 h.

And the half-life at 1 μM [2]?
The half-life at 1 μM was 1.43 h.

What about the half-life at 1 μM [3] of the same molecule?
Its half-life at 1 μM is 0.133 h.

With `CCn1c(CNC(=O)c2nc(Br)cnc2N)[n+](CC)c2ccc(OCCNC(=O)OC(C)(C)C)cc21.O=C[O-]` [Example 24, 2-{[(3-amino-6-bromopyrazin-2-yl)formamido]methyl}-6-(2-{[(tert-butoxy)carbonyl]amino}ethoxy)-1,3-diethyl-1H-1,3-benzodiazol-3-ium formate] as the molecule, how does the half-life at 1 μM [1] read?
The half-life at 1 μM was 1.22 h.

And the half-life at 1 μM [2]?
The half-life at 1 μM was 0.983 h.

What about the half-life at 1 μM [3] of the same molecule?
Its half-life at 1 μM is 0.617 h.

With `CCn1c(CNC(=O)c2nc(Br)cnc2N)[n+](CC)c2ccc(C(=O)OC)cc21.[I-]` [Example 15, 2-{[(3-amino-6-bromopyrazin-2-yl)formamido]methyl}-1,3-diethyl-6-(methoxycarbonyl)-1H-1,3-benzodiazol-3-ium iodide] as the molecule, how does the half-life at 1 μM [1] read?
The half-life at 1 μM was 2.57 h.

And the “Averages. Mic Half Life Human” value [2]?
The value was 2.3 h.

What about the half-life at 1 μM [3] of the same molecule?
The half-life at 1 μM was 0.183 h.

With `CCn1c(CNC(=O)c2nc(Br)cnc2N)[n+](CC)c2ccc(-c3cnn(C4CCNCC4)c3)cc21.Cl.[I-]` [Example 21, 2-{[(3-amino-6-bromopyrazin-2-yl)formamido]methyl}-1,3-diethyl-6-[1-(piperidin-4-yl)-1H-pyrazol-4-yl]-1H-1,3-benzodiazol-3-ium hydrochloride iodide] as the molecule, how does the half-life at 1 μM [1] read?
Its half-life at 1 μM is 1.1 h.

What about the half-life at 1 μM [2] of the same molecule?
The half-life at 1 μM was 1.53 h.

And the half-life at 1 μM [3]?
Its half-life at 1 μM is 1.28 h.

With `CCn1c(CNC(=O)c2nc(Br)cnc2N)[n+](CC)c2ccc(OCCN)cc21.Cl.[Cl-]` [Example 25, 2-{[(3-Amino-6-bromopyrazin-2-yl)formamido]methyl}-6-(2-aminoethoxy)-1,3-diethyl-1H-1,3-benzodiazol-3-ium hydrochloride chloride] as the molecule, how does the half-life at 1 μM [1] read?
Its half-life at 1 μM is over 4 h.

What about the half-life at 1 μM [2] of the same molecule?
Its half-life at 1 μM is over 2.3 h.

And the half-life at 1 μM [3]?
The half-life at 1 μM was over 2.3 h.

With `CCn1c(CNC(=O)c2nc(C#N)cnc2N)[n+](CC)c2ccc(OC)cc21` [Example 26, 2-{[(3-amino-6-cyanopyrazin-2-yl)formamido]methyl}-1,3-diethyl-6-methoxy-1H-1,3-benzodiazol-3-ium formate] as the molecule, how does the half-life at 1 μM [1] read?
Its half-life at 1 μM is 3.87 h.

And the half-life at 1 μM [2]?
Its half-life at 1 μM is over 2.3 h.

And the half-life at 1 μM [3]?
The half-life at 1 μM was under 0.05 h.

With `CCn1c(CNC(=O)c2nc(Br)cnc2N)[n+](CC)c2ccc(C(=O)N[C@@H]3CCOC3=O)cc21` [Example 17, 2-{[(3-amino-6-bromopyrazin-2-yl)formamido]methyl}-1,3-diethyl-6-{[(3R)-2-oxooxolan-3-yl]carbamoyl}-1H-1,3-benzodiazol-3-ium formate] as the molecule, how does the half-life at 1 μM [1] read?
The half-life at 1 μM was 1.68 h.

And the half-life at 1 μM [2]?
The half-life at 1 μM was 2.25 h.

And the half-life at 1 μM [3]?
Its half-life at 1 μM is 0.483 h.

With `CCn1c(CNC(=O)c2nc(Br)cnc2N)[n+](C)c2ccc(Cl)cc21.O=CO.O=C[O-]` [Example 11, 2-{[(3-amino-6-bromopyrazin-2-yl)formamido]methyl}-6-chloro-1-ethyl-3-methyl-1H-1,3-benzodiazol-3-ium formic acid formate] as the molecule, how does the “Averages. Hep Half Life Human” value [1] read?
The value was 4 h.

What about the “Averages. Mic Half Life Human” value [2] of the same molecule?
Its value is 2.3 h.

What about the half-life at 1 μM [3] of the same molecule?
The half-life at 1 μM was 0.0667 h.

For `CCn1c(CNC(=O)c2nc(Br)cnc2N)[n+](CC)c2ccc(OC)cc21.O=C[O-]` [Example 2, 2-{[(3-amino-6-bromopyrazin-2-yl)formamido]methyl}-1,3-diethyl-6-methoxy-1H-1,3-benzodiazol-3-ium formate], which half-life at 1 μM [1] is on record?
Its half-life at 1 μM is 1.5 h.

And the half-life at 1 μM [2]?
Its half-life at 1 μM is 0.967 h.

What about the half-life at 1 μM [3] of the same molecule?
Its half-life at 1 μM is 0.05 h.

With `CCn1c(CNC(=O)c2nc(Br)cnc2N)[n+](C)c2ccc(OC(F)(F)F)cc21.O=C[O-]` [Example 14, 2-{[(3-amino-6-bromopyrazin-2-yl)formamido]methyl}-1-ethyl-3-methyl-6-(trifluoromethoxy)-1H-1,3-benzodiazol-3-ium formate] as the molecule, how does the half-life at 1 μM [1] read?
Its half-life at 1 μM is 3.42 h.

And the “Averages. Mic Half Life Human” value [2]?
Its value is 2.3 h.

And the half-life at 1 μM [3]?
The half-life at 1 μM was 0.183 h.

Which half-life at 1 μM [1] does the source give for `CCn1c(CNC(=O)c2nc(Br)cnc2N)[n+](CC)c2ccc(-c3cnn(C4CCN(C[C@H](O)[C@@H](O)[C@H](O)[C@H](O)CO)CC4)c3)cc21.O=CO.[Cl-]` [Example 23, 2-{[(3-amino-6-bromopyrazin-2-yl)formamido]methyl}-1,3-diethyl-6-(1-{1-[(2S,3R,4R,5R)-2,3,4,5,6-pentahydroxyhexyl]piperidin-4-yl}-1H-pyrazol-4-yl)-1H-1,3-benzodiazol-3-ium formic acid chloride] here?
The half-life at 1 μM was 1.2 h.

What about the half-life at 1 μM [2] of the same molecule?
The half-life at 1 μM was over 2.3 h.

And the half-life at 1 μM [3]?
The half-life at 1 μM was over 2.3 h.

Which “Averages. Hep Half Life Human” value [1] does the source give for `CCn1c(CNC(=O)c2nc(Br)cnc2N)[n+](Cc2ccccc2)c2ccc(C(F)(F)F)cc21.O=C[O-]` [Example 19, 2-{[(3-Amino-6-bromopyrazin-2-yl)formamido]methyl}-3-benzyl-1-ethyl-6-(trifluoromethyl)-1H-1,3-benzodiazol-3-ium formate] here?
Its value is 4 h.

Which half-life at 1 μM [1] does the source give for `CCn1c(CNC(=O)c2nc(Br)cnc2N)[n+](CC)c2ccc(C(=O)N[C@H]3CCOC3=O)cc21` [Example 18, 2-{[(3-amino-6-bromopyrazin-2-yl)formamido]methyl}-1,3-diethyl-6-{[(3S)-2-oxooxolan-3-yl]carbamoyl}-1H-1,3-benzodiazol-3-ium formate] here?
The half-life at 1 μM was 2.28 h.

And the half-life at 1 μM [2]?
Its half-life at 1 μM is over 2.3 h.

And the half-life at 1 μM [3]?
Its half-life at 1 μM is 1.02 h.

For `CCc1cnc(N)c(C(=O)NCc2n(CC)c3cc(OC)ccc3[n+]2C)n1.[I-]` [Example 8, 2-{[(3-amino-6-ethylpyrazin-2-yl)formamido]methyl}-1-ethyl-6-methoxy-3-methyl-1H-1,3-benzodiazol-3-ium iodide], which half-life at 1 μM [2] is on record?
The half-life at 1 μM was 0.383 h.

What about the half-life at 1 μM [3] of the same molecule?
Its half-life at 1 μM is 0.05 h.

Which half-life at 1 μM [2] does the source give for `CCn1c(CNC(=O)c2nc(Br)cnc2N)[n+](C)c2ccc(F)cc21.O=C[O-]` [Example 12, 2-{[(3-amino-6-bromopyrazin-2-yl)formamido]methyl}-1-ethyl-6-fluoro-3-methyl-1H-1,3-benzodiazol-3-ium formate] here?
Its half-life at 1 μM is 1.85 h.

And the half-life at 1 μM [3]?
The half-life at 1 μM was 0.0667 h.

For `CCn1c(CNC(=O)c2nc(Br)cnc2N)[n+](CC)c2ccc(-c3cnn(C4CCN(C(=N)N)CC4)c3)cc21.O=CO.O=C[O-]` [Example 22, 2-{[(3-amino-6-bromopyrazin-2-yl)formamido]methyl}-6-[1-(1-carbamimidoylpiperidin-4-yl)-1H-pyrazol-4-yl]-1,3-diethyl-1H-1,3-benzodiazol-3-ium formic acid formate], which half-life at 1 μM [1] is on record?
Its half-life at 1 μM is 1.12 h.

What about the half-life at 1 μM [2] of the same molecule?
Its half-life at 1 μM is over 2.3 h.

And the half-life at 1 μM [3]?
The half-life at 1 μM was over 2.3 h.

What does the source list for `CCn1c(CNC(=O)c2nc(SC)cnc2N)[n+](C)c2ccc(OC)cc21.[I-]` [Example 9, 2-({[3-amino-6-(methylsulfanyl)pyrazin-2-yl]formamido}methyl)-1-ethyl-6-methoxy-3-methyl-1H-1,3-benzodiazol-3-ium iodide]?
half-life at 1 μM [2]: 0.0833 h; half-life at 1 μM [3]: 0.05 h
